Assay results reported in paper PMC7827406, “Structure–Activity Relationship (SAR) Study of Spautin-1 to Entail the Discovery of Novel NEK4 Inhibitors” (International Journal of Molecular Sciences, 2021).
Like-named read-outs stand apart in the source and are kept apart here.

Key:
Experiment in all cases: biochemical
Set-up in all cases: Eurofins KinaseProfiler full panel at Km ATP, residual kinase activity (%) relative to DMSO
A-Raf(h) = target: T1, A-Raf(h) (Homo sapiens, UniProt P10398)
T1 construct: gene ARAF
T1 sequence (P10398 1-606): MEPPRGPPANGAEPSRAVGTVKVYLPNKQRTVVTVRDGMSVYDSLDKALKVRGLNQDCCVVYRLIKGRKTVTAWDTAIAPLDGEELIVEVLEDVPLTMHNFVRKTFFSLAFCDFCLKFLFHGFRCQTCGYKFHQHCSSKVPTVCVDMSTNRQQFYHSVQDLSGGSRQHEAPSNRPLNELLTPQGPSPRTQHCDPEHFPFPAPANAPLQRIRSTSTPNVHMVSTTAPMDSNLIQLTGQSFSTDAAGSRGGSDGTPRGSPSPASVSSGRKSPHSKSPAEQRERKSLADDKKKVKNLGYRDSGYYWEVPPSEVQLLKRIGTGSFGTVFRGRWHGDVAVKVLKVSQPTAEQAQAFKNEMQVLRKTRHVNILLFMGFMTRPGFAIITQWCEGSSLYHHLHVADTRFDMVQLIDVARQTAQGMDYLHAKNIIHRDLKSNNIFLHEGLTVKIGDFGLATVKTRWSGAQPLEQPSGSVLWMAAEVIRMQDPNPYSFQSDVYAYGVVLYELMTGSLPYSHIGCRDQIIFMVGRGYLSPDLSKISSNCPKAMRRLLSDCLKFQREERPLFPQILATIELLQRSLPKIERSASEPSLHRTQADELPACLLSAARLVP
Procedure, shortened: (§1)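 Compounds screened at 10 µM in radiometric kinase activity assays at Km ATP, reported as remaining kinase activity (%). A KINOMEscan competition-binding screen at 10 µM measured DNA-tagged kinase retained on immobilized active-site ligand by qPCR.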

CDK5/p35(h) = target: T2, CDK5/p35(h) (Homo sapiens, UniProt Q00535)
T2 construct: p35
T2 sequence (Q00535 whole entry): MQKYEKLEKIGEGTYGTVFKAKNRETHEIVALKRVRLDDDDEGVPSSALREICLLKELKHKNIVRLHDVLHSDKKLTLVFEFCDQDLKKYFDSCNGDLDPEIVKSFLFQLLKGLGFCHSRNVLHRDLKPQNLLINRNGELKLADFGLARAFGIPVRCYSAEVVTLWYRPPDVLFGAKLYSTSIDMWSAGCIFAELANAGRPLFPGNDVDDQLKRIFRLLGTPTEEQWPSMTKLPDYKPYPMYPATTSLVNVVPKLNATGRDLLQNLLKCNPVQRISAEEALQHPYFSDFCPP
T2 sequence (Q15078 whole entry partner): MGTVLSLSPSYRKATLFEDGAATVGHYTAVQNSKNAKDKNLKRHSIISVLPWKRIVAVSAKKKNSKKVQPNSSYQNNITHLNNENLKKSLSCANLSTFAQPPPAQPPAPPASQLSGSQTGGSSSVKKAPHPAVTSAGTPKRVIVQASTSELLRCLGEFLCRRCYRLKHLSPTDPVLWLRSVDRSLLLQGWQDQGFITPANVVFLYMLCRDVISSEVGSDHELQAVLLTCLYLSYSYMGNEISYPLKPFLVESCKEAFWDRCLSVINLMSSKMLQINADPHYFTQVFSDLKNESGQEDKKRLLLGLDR
Procedure, shortened: as §1

CHK1(h) = target: T3, CHK1(h) (Homo sapiens, UniProt O14757)
T3 construct: gene CHEK1
T3 sequence (O14757 1-476): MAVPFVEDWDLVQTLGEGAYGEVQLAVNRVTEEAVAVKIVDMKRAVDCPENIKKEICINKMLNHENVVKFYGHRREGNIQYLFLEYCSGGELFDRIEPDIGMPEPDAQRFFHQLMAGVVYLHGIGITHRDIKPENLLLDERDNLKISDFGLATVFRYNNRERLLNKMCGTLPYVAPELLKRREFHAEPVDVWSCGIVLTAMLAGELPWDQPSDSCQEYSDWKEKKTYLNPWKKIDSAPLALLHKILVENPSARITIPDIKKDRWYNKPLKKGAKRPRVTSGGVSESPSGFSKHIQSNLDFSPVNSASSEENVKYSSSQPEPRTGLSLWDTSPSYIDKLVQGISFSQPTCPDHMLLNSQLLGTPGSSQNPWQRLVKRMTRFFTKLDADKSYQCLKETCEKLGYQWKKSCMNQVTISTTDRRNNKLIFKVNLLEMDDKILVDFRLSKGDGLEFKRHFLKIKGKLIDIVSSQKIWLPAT
Procedure, shortened: as §1

ErbB4(h) = ErbB4(h) (Homo sapiens, UniProt Q15303)
ErbB4(h), sequence (Q15303 whole entry): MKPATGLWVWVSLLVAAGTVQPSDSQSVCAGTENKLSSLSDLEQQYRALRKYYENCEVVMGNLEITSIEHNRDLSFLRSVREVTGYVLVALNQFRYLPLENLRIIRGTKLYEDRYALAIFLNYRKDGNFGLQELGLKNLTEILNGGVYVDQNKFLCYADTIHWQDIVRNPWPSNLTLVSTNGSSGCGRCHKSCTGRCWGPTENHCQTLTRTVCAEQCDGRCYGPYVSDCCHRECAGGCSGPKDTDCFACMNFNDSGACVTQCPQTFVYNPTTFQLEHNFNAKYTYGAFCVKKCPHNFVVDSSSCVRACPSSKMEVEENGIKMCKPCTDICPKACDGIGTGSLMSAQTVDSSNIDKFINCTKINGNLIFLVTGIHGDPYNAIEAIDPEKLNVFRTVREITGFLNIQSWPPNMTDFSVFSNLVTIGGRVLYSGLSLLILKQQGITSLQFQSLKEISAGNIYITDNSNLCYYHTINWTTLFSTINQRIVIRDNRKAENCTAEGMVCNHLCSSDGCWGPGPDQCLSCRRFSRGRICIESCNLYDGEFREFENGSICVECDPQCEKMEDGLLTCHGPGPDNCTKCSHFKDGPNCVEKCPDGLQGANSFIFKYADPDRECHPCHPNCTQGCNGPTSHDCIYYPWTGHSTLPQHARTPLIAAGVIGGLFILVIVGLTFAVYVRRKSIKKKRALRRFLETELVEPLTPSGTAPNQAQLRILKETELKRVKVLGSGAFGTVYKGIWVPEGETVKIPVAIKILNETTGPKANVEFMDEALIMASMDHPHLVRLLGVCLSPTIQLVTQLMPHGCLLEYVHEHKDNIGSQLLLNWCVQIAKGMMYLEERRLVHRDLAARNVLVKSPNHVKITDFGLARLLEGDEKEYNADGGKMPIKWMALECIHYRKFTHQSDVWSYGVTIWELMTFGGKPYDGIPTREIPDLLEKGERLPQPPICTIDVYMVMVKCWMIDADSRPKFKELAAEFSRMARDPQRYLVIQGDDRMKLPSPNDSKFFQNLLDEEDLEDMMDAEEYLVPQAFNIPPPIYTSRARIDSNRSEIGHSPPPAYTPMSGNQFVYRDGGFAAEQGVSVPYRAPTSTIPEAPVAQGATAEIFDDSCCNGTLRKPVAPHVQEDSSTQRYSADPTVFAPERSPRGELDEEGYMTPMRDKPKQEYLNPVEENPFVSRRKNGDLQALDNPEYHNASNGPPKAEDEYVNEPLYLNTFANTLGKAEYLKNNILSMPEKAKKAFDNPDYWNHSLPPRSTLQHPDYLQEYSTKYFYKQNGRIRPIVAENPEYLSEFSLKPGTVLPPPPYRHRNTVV
Procedure, shortened: as §1

PKCζ(h) = target: T4, PKCζ(h) (Homo sapiens, UniProt Q05513)
T4 construct: gene PRKCZ
T4 sequence (Q05513 1-592): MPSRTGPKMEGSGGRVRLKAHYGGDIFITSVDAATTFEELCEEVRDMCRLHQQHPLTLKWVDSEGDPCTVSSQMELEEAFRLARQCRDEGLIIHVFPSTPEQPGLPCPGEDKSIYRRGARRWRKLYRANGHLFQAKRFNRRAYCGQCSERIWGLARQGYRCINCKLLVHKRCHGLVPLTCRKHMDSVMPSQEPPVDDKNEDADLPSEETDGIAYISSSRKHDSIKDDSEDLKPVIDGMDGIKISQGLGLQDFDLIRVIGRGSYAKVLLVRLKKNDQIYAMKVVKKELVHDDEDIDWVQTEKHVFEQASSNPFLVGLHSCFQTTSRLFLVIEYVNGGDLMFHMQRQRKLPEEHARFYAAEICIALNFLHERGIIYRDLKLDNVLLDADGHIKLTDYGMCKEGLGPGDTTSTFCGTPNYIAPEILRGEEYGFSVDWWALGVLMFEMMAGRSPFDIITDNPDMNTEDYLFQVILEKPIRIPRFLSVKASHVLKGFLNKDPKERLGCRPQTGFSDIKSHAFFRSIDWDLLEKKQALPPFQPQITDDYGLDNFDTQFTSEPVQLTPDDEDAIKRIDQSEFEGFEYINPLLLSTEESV
Procedure, shortened: as §1

[1] = read-out: Residual activity (%) Spautin-1 5aa
[2] = read-out: Residual activity (%) 5as
[3] = read-out: Residual activity (%) 5at
[4] = read-out: Residual activity (%) 5ay

Q: How did the remaining activity at 10 µM (A-Raf(h); [1]) turn out when `Fc1ccc(CNc2ncnc3ccc(F)cc23)cc1` [5aa, 6-Fluoro-N-(4-fluorobenzyl)-4-Quinazolinamine] was run?
A: 103%

Q: What about the remaining activity at 10 µM (CDK5/p35(h); [1]) of the same compound?
A: 87%

Q: And the remaining activity at 10 µM (CHK1(h); [1])?
A: 80%

Q: And the remaining activity at 10 µM (ErbB4(h); [1])?
A: 90%

Q: And the remaining activity at 10 µM (PKCζ(h); [1])?
A: 85%

Q: With `Fc1ccc(CCNc2ncnc3ccc(F)cc23)cc1` [5as, 6-Fluoro-N-[2-(4-Fluorophenyl)Ethyl]-4-Quinazolinamine] as the compound, how does the remaining activity at 10 µM (A-Raf(h); [2]) read?
A: 106%

Q: And the remaining activity at 10 µM (CDK5/p35(h); [2])?
A: 87%

Q: And the remaining activity at 10 µM (CHK1(h); [2])?
A: 69%

Q: What about the remaining activity at 10 µM (ErbB4(h); [2]) of the same compound?
A: 84%

Q: And the remaining activity at 10 µM (PKCζ(h); [2])?
A: 75%

Q: With `Fc1ccc2ncnc(NCCc3ccc(Cl)cc3)c2c1` [5at, N-[2-(4-Chlorophenyl)Ethyl]-6-Fluoro-4-Quinazolinamine] as the compound, how does the remaining activity at 10 µM (A-Raf(h); [3]) read?
A: 108%

Q: What about the remaining activity at 10 µM (CDK5/p35(h); [3]) of the same compound?
A: 87%

Q: What about the remaining activity at 10 µM (CHK1(h); [3]) of the same compound?
A: 73%

Q: And the remaining activity at 10 µM (ErbB4(h); [3])?
A: 79%

Q: What about the remaining activity at 10 µM (PKCζ(h); [3]) of the same compound?
A: 71%

Q: What does the source list for `COc1ccc2ncnc(Nc3cccc(F)c3)c2c1` [5ay, N-(3-Fluorophenyl)-6-Methoxy-4-Quinazolinamine]?
A: remaining activity at 10 µM (A-Raf(h); [4]): 100%; remaining activity at 10 µM (CDK5/p35(h); [4]): 89%; remaining activity at 10 µM (CHK1(h); [4]): 76%; remaining activity at 10 µM (ErbB4(h); [4]): 74%; remaining activity at 10 µM (PKCζ(h); [4]): 91%
